Tests used:
Assay in all cases: relative viability (nuclei count vs DMSO), 5 days (fraction); higher = more cells survive
CAP-232 = compound: C[C@H]([C@@H](C(=O)N)NC(=O)[C@@H]1CSSC[C@@H](C(=O)N[C@H](C(=O)N[C@@H](C(=O)N[C@H](C(=O)N1)CCCCN)CC2=CNC3=CC=CC=C32)CC4=CC=C(C=C4)O)NC(=O)[C@@H](CC5=CC=CC=C5)N)O [CAP-232]
In short: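 For viability, nuclei in each treated well were divided by nuclei in vehicle wells and the median across plates was taken. Lung cancer cell lines in 1536-well plates were pinned with five library-drug doses (not always all listed) spaced by √10, cultured 5 days without medium change, and imaged at 4× after Hoechst staining, with plates passing only at control CV below 25% and at least one doubling.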

CAP-232 + Bortezomib = compound: C[C@H]([C@@H](C(=O)N)NC(=O)[C@@H]1CSSC[C@@H](C(=O)N[C@H](C(=O)N[C@@H](C(=O)N[C@H](C(=O)N1)CCCCN)CC2=CNC3=CC=CC=C32)CC4=CC=C(C=C4)O)NC(=O)[C@@H](CC5=CC=CC=C5)N)O [CAP-232] + CC(C)C[C@H](NC(=O)[C@H](Cc1ccccc1)NC(=O)c1cnccn1)B(O)O [Bortezomib] (partner 0.002 µM)
In short: (§1)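 Relative viability divides the nuclei count in treated wells by that in vehicle wells. Lung cancer cell lines were seeded in 1536-well plates, dosed by pin tool the next day, and fixed and stained after 5 days in one step with final 0.05% Triton X-100, 1% formaldehyde and 1 ug/ml Hoechst. Dosing was a single drug or a fixed anchor-drug dose plus five library-drug doses (not always all listed) in √10 steps, and values are medians of duplicate plates imaged at 4×.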

CAP-232 + Navitoclax = compound: C[C@H]([C@@H](C(=O)N)NC(=O)[C@@H]1CSSC[C@@H](C(=O)N[C@H](C(=O)N[C@@H](C(=O)N[C@H](C(=O)N1)CCCCN)CC2=CNC3=CC=CC=C32)CC4=CC=C(C=C4)O)NC(=O)[C@@H](CC5=CC=CC=C5)N)O [CAP-232] + CC1(C)CCC(c2ccc(Cl)cc2)=C(CN2CCN(c3ccc(C(=O)NS(=O)(=O)c4ccc(N[C@H](CCN5CCOCC5)CSc5ccccc5)c(S(=O)(=O)C(F)(F)F)c4)cc3)CC2)C1 [Navitoclax] (partner 0.5 µM)
In short: as §1

CAP-232 + Foretinib = compound: C[C@H]([C@@H](C(=O)N)NC(=O)[C@@H]1CSSC[C@@H](C(=O)N[C@H](C(=O)N[C@@H](C(=O)N[C@H](C(=O)N1)CCCCN)CC2=CNC3=CC=CC=C32)CC4=CC=C(C=C4)O)NC(=O)[C@@H](CC5=CC=CC=C5)N)O [CAP-232] + COc1cc2c(Oc3ccc(NC(=O)C4(C(=O)Nc5ccc(F)cc5)CC4)cc3F)ccnc2cc1OCCCN1CCOCC1 [Foretinib] (partner 0.25 µM)
In short: as §1

CAP-232 + Lapatinib = compound: C[C@H]([C@@H](C(=O)N)NC(=O)[C@@H]1CSSC[C@@H](C(=O)N[C@H](C(=O)N[C@@H](C(=O)N[C@H](C(=O)N1)CCCCN)CC2=CNC3=CC=CC=C32)CC4=CC=C(C=C4)O)NC(=O)[C@@H](CC5=CC=CC=C5)N)O [CAP-232] + CS(=O)(=O)CCNCc1ccc(-c2ccc3ncnc(Nc4ccc(OCc5cccc(F)c5)c(Cl)c4)c3c2)o1 [Lapatinib] (partner 2 µM)
In short: as §1

CAP-232 + Pictilisib = compound: C[C@H]([C@@H](C(=O)N)NC(=O)[C@@H]1CSSC[C@@H](C(=O)N[C@H](C(=O)N[C@@H](C(=O)N[C@H](C(=O)N1)CCCCN)CC2=CNC3=CC=CC=C32)CC4=CC=C(C=C4)O)NC(=O)[C@@H](CC5=CC=CC=C5)N)O [CAP-232] + CS(=O)(=O)N1CCN(Cc2cc3nc(-c4cccc5[nH]ncc45)nc(N4CCOCC4)c3s2)CC1 [Pictilisib] (partner 1 µM)
In short: as §1

CAP-232 + Crizotinib = compound: C[C@H]([C@@H](C(=O)N)NC(=O)[C@@H]1CSSC[C@@H](C(=O)N[C@H](C(=O)N[C@@H](C(=O)N[C@H](C(=O)N1)CCCCN)CC2=CNC3=CC=CC=C32)CC4=CC=C(C=C4)O)NC(=O)[C@@H](CC5=CC=CC=C5)N)O [CAP-232] + C[C@@H](Oc1cc(-c2cnn(C3CCNCC3)c2)cnc1N)c1c(Cl)ccc(F)c1Cl [Crizotinib] (partner 1 µM)
In short: as §1

CAP-232 + Linsitinib = compound: C[C@H]([C@@H](C(=O)N)NC(=O)[C@@H]1CSSC[C@@H](C(=O)N[C@H](C(=O)N[C@@H](C(=O)N[C@H](C(=O)N1)CCCCN)CC2=CNC3=CC=CC=C32)CC4=CC=C(C=C4)O)NC(=O)[C@@H](CC5=CC=CC=C5)N)O [CAP-232] + C[C@]1(O)C[C@@H](c2nc(-c3ccc4ccc(-c5ccccc5)nc4c3)c3c(N)nccn32)C1 [Linsitinib] (partner 1 µM)
In short: as §1

CAP-232 + Alpelisib = compound: C[C@H]([C@@H](C(=O)N)NC(=O)[C@@H]1CSSC[C@@H](C(=O)N[C@H](C(=O)N[C@@H](C(=O)N[C@H](C(=O)N1)CCCCN)CC2=CNC3=CC=CC=C32)CC4=CC=C(C=C4)O)NC(=O)[C@@H](CC5=CC=CC=C5)N)O [CAP-232] + Cc1nc(NC(=O)N2CCC[C@H]2C(N)=O)sc1-c1ccnc(C(C)(C)C(F)(F)F)c1 [Alpelisib] (partner 2 µM)
In short: as §1

CAP-232 + Olaparib = compound: C[C@H]([C@@H](C(=O)N)NC(=O)[C@@H]1CSSC[C@@H](C(=O)N[C@H](C(=O)N[C@@H](C(=O)N[C@H](C(=O)N1)CCCCN)CC2=CNC3=CC=CC=C32)CC4=CC=C(C=C4)O)NC(=O)[C@@H](CC5=CC=CC=C5)N)O [CAP-232] + O=C(c1cc(Cc2n[nH]c(=O)c3ccccc23)ccc1F)N1CCN(C(=O)C2CC2)CC1 [Olaparib] (partner 8 µM)
In short: as §1

CAP-232 + Luminespib = compound: C[C@H]([C@@H](C(=O)N)NC(=O)[C@@H]1CSSC[C@@H](C(=O)N[C@H](C(=O)N[C@@H](C(=O)N[C@H](C(=O)N1)CCCCN)CC2=CNC3=CC=CC=C32)CC4=CC=C(C=C4)O)NC(=O)[C@@H](CC5=CC=CC=C5)N)O [CAP-232] + CCNC(=O)c1noc(-c2cc(C(C)C)c(O)cc2O)c1-c1ccc(CN2CCOCC2)cc1 [Luminespib] (partner 0.01 µM)
In short: as §1

CAP-232 + OSI-027 = compound: C[C@H]([C@@H](C(=O)N)NC(=O)[C@@H]1CSSC[C@@H](C(=O)N[C@H](C(=O)N[C@@H](C(=O)N[C@H](C(=O)N1)CCCCN)CC2=CNC3=CC=CC=C32)CC4=CC=C(C=C4)O)NC(=O)[C@@H](CC5=CC=CC=C5)N)O [CAP-232] + COc1cccc2cc(-c3nc([C@H]4CC[C@H](C(=O)O)CC4)n4ncnc(N)c34)[nH]c12 [OSI-027] (partner 0.5 µM)
In short: as §1

CAP-232 + Tozasertib = compound: C[C@H]([C@@H](C(=O)N)NC(=O)[C@@H]1CSSC[C@@H](C(=O)N[C@H](C(=O)N[C@@H](C(=O)N[C@H](C(=O)N1)CCCCN)CC2=CNC3=CC=CC=C32)CC4=CC=C(C=C4)O)NC(=O)[C@@H](CC5=CC=CC=C5)N)O [CAP-232] + Cc1cc(Nc2cc(N3CCN(C)CC3)nc(Sc3ccc(NC(=O)C4CC4)cc3)n2)n[nH]1 [Tozasertib] (partner 0.1 µM)
In short: as §1

CAP-232 + Dasatinib = compound: C[C@H]([C@@H](C(=O)N)NC(=O)[C@@H]1CSSC[C@@H](C(=O)N[C@H](C(=O)N[C@@H](C(=O)N[C@H](C(=O)N1)CCCCN)CC2=CNC3=CC=CC=C32)CC4=CC=C(C=C4)O)NC(=O)[C@@H](CC5=CC=CC=C5)N)O [CAP-232] + Cc1nc(Nc2ncc(C(=O)Nc3c(C)cccc3Cl)s2)cc(N2CCN(CCO)CC2)n1 [Dasatinib] (partner 0.075 µM)
In short: as §1

CAP-232 + Phenformin = compound: C[C@H]([C@@H](C(=O)N)NC(=O)[C@@H]1CSSC[C@@H](C(=O)N[C@H](C(=O)N[C@@H](C(=O)N[C@H](C(=O)N1)CCCCN)CC2=CNC3=CC=CC=C32)CC4=CC=C(C=C4)O)NC(=O)[C@@H](CC5=CC=CC=C5)N)O [CAP-232] + N=C(N)NC(=N)NCCc1ccccc1 [Phenformin] (partner 250 µM)
In short: as §1

## NCI-H1299
CAP-232; 0.4 µM
  relative viability: 1.03
CAP-232; 1.265 µM
  relative viability: 1.01
CAP-232; 4 µM
  relative viability: 1.04
CAP-232; 12.65 µM
  relative viability: 1.02
CAP-232 + Bortezomib; first compound 0.4 µM
  relative viability: 1.02
CAP-232 + Bortezomib; first compound 1.265 µM
  relative viability: 1.02
CAP-232 + Bortezomib; first compound 4 µM
  relative viability: 1.06
CAP-232 + Bortezomib; first compound 12.65 µM
  relative viability: 1.01
CAP-232 + Navitoclax; first compound 0.4 µM
  relative viability: 1.04
CAP-232 + Navitoclax; first compound 1.265 µM
  relative viability: 0.991
CAP-232 + Navitoclax; first compound 4 µM
  relative viability: 1.1
CAP-232 + Navitoclax; first compound 12.65 µM
  relative viability: 1.1
CAP-232 + Foretinib; first compound 0.4 µM
  relative viability: 1.09
CAP-232 + Foretinib; first compound 1.265 µM
  relative viability: 1.06
CAP-232 + Foretinib; first compound 4 µM
  relative viability: 1.08
CAP-232 + Foretinib; first compound 12.65 µM
  relative viability: 1.05
CAP-232 + Lapatinib; first compound 0.4 µM
  relative viability: 1.03
CAP-232 + Lapatinib; first compound 1.265 µM
  relative viability: 0.963
CAP-232 + Lapatinib; first compound 4 µM
  relative viability: 0.908
CAP-232 + Lapatinib; first compound 12.65 µM
  relative viability: 0.96
CAP-232 + Pictilisib; first compound 0.4 µM
  relative viability: 0.747
CAP-232 + Pictilisib; first compound 1.265 µM
  relative viability: 0.746
CAP-232 + Pictilisib; first compound 4 µM
  relative viability: 0.626
CAP-232 + Pictilisib; first compound 12.65 µM
  relative viability: 0.589
CAP-232 + Crizotinib; first compound 0.4 µM
  relative viability: 0.955
CAP-232 + Crizotinib; first compound 1.265 µM
  relative viability: 0.952
CAP-232 + Crizotinib; first compound 4 µM
  relative viability: 0.941
CAP-232 + Crizotinib; first compound 12.65 µM
  relative viability: 1.02
CAP-232 + Linsitinib; first compound 0.4 µM
  relative viability: 1.15
CAP-232 + Linsitinib; first compound 1.265 µM
  relative viability: 0.92
CAP-232 + Linsitinib; first compound 4 µM
  relative viability: 1.06
CAP-232 + Linsitinib; first compound 12.65 µM
  relative viability: 1.09
CAP-232 + Alpelisib; first compound 0.4 µM
  relative viability: 1.04
CAP-232 + Alpelisib; first compound 1.265 µM
  relative viability: 1.05
CAP-232 + Alpelisib; first compound 4 µM
  relative viability: 1.03
CAP-232 + Alpelisib; first compound 12.65 µM
  relative viability: 1.08
CAP-232 + Olaparib; first compound 0.4 µM
  relative viability: 0.942
CAP-232 + Olaparib; first compound 1.265 µM
  relative viability: 1.01
CAP-232 + Olaparib; first compound 4 µM
  relative viability: 0.977
CAP-232 + Olaparib; first compound 12.65 µM
  relative viability: 0.934

## NCI-H1623
CAP-232; 0.4 µM
  relative viability: 1.06
CAP-232; 1.265 µM
  relative viability: 1.02
CAP-232; 4 µM
  relative viability: 0.92
CAP-232; 12.65 µM
  relative viability: 1.01
CAP-232 + Luminespib; first compound 0.4 µM
  relative viability: 0.503
CAP-232 + Luminespib; first compound 1.265 µM
  relative viability: 0.467
CAP-232 + Luminespib; first compound 4 µM
  relative viability: 0.557
CAP-232 + Luminespib; first compound 12.65 µM
  relative viability: 0.359
CAP-232 + Foretinib; first compound 0.4 µM
  relative viability: 0.945
CAP-232 + Foretinib; first compound 1.265 µM
  relative viability: 0.802
CAP-232 + Foretinib; first compound 4 µM
  relative viability: 0.849
CAP-232 + Foretinib; first compound 12.65 µM
  relative viability: 0.769
CAP-232 + OSI-027; first compound 0.4 µM
  relative viability: 0.412
CAP-232 + OSI-027; first compound 1.265 µM
  relative viability: 0.495
CAP-232 + OSI-027; first compound 4 µM
  relative viability: 0.488
CAP-232 + OSI-027; first compound 12.65 µM
  relative viability: 0.38
CAP-232 + Tozasertib; first compound 0.4 µM
  relative viability: 0.713
CAP-232 + Tozasertib; first compound 1.265 µM
  relative viability: 0.411
CAP-232 + Tozasertib; first compound 4 µM
  relative viability: 0.465
CAP-232 + Tozasertib; first compound 12.65 µM
  relative viability: 0.632
CAP-232 + Dasatinib; first compound 0.4 µM
  relative viability: 0.612
CAP-232 + Dasatinib; first compound 1.265 µM
  relative viability: 0.47
CAP-232 + Dasatinib; first compound 4 µM
  relative viability: 0.521
CAP-232 + Dasatinib; first compound 12.65 µM
  relative viability: 0.742
CAP-232 + Phenformin; first compound 0.4 µM
  relative viability: 0.589
CAP-232 + Phenformin; first compound 1.265 µM
  relative viability: 0.579
CAP-232 + Phenformin; first compound 4 µM
  relative viability: 0.603
CAP-232 + Phenformin; first compound 12.65 µM
  relative viability: 0.566
